Data: patent US12377077B2, “Methods and formulations to treat mitochondrial dysfunction” (The Board of Trustees of the Leland Stanford Junior …, priority 2018, dated 2025)
“Also recorded” adds a separate entry of the source. Each block holds one compound with its values, some of them ahead of it.

Tests used:
CI-deficient fibroblasts = assay: Cell viability by Calcein AM in mitochondrial stressor media; assay type: cell-based, human; conditions: FIG. 2C
Method: Fibroblasts previously derived from four patients with primary mitochondrial disease (Surf1, Complex I, Cox10, Polg), three patients with NGLY1 deficiency and four normal controls were used for the study. All samples were obtained with informed consent and approved by the Stanford IRB. Fibroblasts were maintained in DMEM medium containing 8.3 mM glucose and supplemented with 10% fetal bovine serum (FBS)(Fisher Scientific), 1% Penicillin-Streptomycin (10,000 U/mL)(Life Technologies), 1% glutaMAX (Life Technologies), 1% uridine (5 mg/ml) and 1% pyruvate (11 mg/ml) at 37° C., 5% CO2.
For the screening of various compounds, 15×10^3 cells/500 ul media were seeded in quadruplets on 24 well microtiter plates. The following day, the medium was removed, wells washed with PBS and replaced with a mitochondrial stressor media containing DMEM, 1% Penicillin-Streptomycin (10,000 U/mL)(Life Technologies), 10% FCS (Fisher Scientific), 1 mM Galactose (Sigma Aldrich), and 25 μM sodium azide with or without the following compounds: 1 mM AICAR (Medchem Express), 1 mM Metformin (Sigma Aldrich), 100 μM PT1 (Santa Cruz Biotechnology), 100 μM A-769662 (Medchem Express), 100 μM C24 (Medchem Express). Following treatment with the various compounds, tissue cultures were analyzed for growth, oxygen consumption rate, and ATP levels.
Methods: Cell growth was measured by a fluorometric method using Calcein AM (Anaspec). Mitochondrial stressor media was removed, wells washed with PBS and then incubated with 500 ul/well of 800 nM Calcein AM in PBS for 30 min at 37 C, 5% CO2. Cell viability was measured by values obtained using a 485 nm excitation with the Flouroskan Ascent Microplate Fluorometer (Thermo Scientific).

[1] = system: SURF1-deficient fibroblasts; assay: as above; assay type: cell-based, human; conditions: for cellular viability, dose dependent manner: SURF1 deficient fibroblasts, FIG. 2F
Method: (§1) Fibroblasts previously derived from four patients with primary mitochondrial disease (Surf1, Complex I, Cox10, Polg), three patients with NGLY1 deficiency and four normal controls were used for the study. All samples were obtained with informed consent and approved by the Stanford IRB. Fibroblasts were maintained in DMEM medium containing 8.3 mM glucose and supplemented with 10% fetal bovine serum (FBS)(Fisher Scientific), 1% Penicillin-Streptomycin (10,000 U/mL)(Life Technologies), 1% glutaMAX (Life Technologies), 1% uridine (5 mg/ml) and 1% pyruvate (11 mg/ml) at 37° C., 5% CO2. For the screening of various compounds, 15×10^3 cells/500 ul media were seeded in quadruplets on 24 well microtiter plates. The following day, the medium was removed, wells washed with PBS and replaced with a mitochondrial stressor media containing DMEM, 1% Penicillin-Streptomycin (10,000 U/mL)(Life Technologies), 10% FCS (Fisher Scientific), 1 mM Galactose (Sigma Aldrich), and 25 μM sodium azide with or without the following compounds: 1 mM AICAR (Medchem Express), 1 mM Metformin (Sigma Aldrich), 100 μM PT1 (Santa Cruz Biotechnology), 100 μ[…] Express). Following treatment with the various compounds, tissue cultures were analyzed for growth, oxygen consumption rate, and ATP levels. Methods: Cell growth was measured by a fluorometric method using Calcein AM (Anaspec). Mitochondrial stressor media was removed, wells washed with PBS and then incubated with 500 ul/well of 800 nM Calcein AM in PBS for 30 min at 37 C, 5% CO2. Cell viability was measured by values obtained using a 485 nm excitation with the Flouroskan Ascent Microplate Fluorometer (Thermo Scientific).

[2] = system: SURF1-deficient fibroblasts; assay: Cellular morphology by phase-contrast microscopy; assay type: cell-based, human; conditions: vs DMSO
Text: Fibroblasts in tissue culture were visualized by phase-contrast microscopy with a Leica DM IRB microscope at ×10 magnification, and images were taken with the Hamamatsu ORCA-ER camera.

AMPK = AMPK activity used in determining EC50 (FIG. 16B); assay type: biochemical
[3] = system: POLG-deficient fibroblasts; assay: Cell viability by Calcein AM in mitochondrial stressor media; assay type: cell-based, human; conditions: FIG. 2D
Method: as §1

[4] = system: phosphorylated ACC (pACC); assay: pACC western blot in mitochondrial-defective patient cells; assay type: cell-based, human; conditions: mitochondrial-defective patient cells vs DMSO; FIG. 16A
[5] = system: COX10-deficient fibroblasts; assay: Cell viability by Calcein AM in mitochondrial stressor media; assay type: cell-based, human; conditions: FIG. 2B
Method: as §1

[6] = system: phosphorylated ACC (pACC); assay: pACC western blot in skeletal muscle of Sco2 KI/KO mice; assay type: in vivo; conditions: KI/KO mice vs vehicle; FIGS. 11F-11G
Text: (§2) Methods: To examine the effects of AMPK agonists on in vivo systems with mitochondrial dysfunction, MK8722 was used to treat a mouse model of mitochondrial disease. These mice have mitochondrial Complex IV deficiency caused by deficient cytochrome C oxidase assembly protein, SCO2, and harbor a Sco2 knock-out (KO) allele and a Sco2 knock-in (KI) allele expressing an E→K mutation at position 129 (E129K). The E129K mutation corresponds to the E140K mutation found in almost all human SCO2-mutated patients. (See e.g., Yang et al, Analysis of mouse models of cytochrome c oxidase deficiency owing to mutations in Sco2. Hum Mol Genet. 2010 Jan. 1; 19(1):170-80; the disclosure of which is incorporated by reference herein in its entirety.) The predominant phenotype of Sco2 deficient mice is reduced locomotor function and ocular defects, both common findings in patients with primary mitochondrial disease. The Sco2 mice were grouped into four treatment groups: Sco2 KI/KO+MK8722, Sco2 KI/KO+DMSO (vehicle), Control KI/WT+MK8722, Control KI/WT+DMSO with 7-9 mice per group. 1.5-month old Sco2 mice were treated once daily by oral gavage with MK8722 (10 mg/kg) or vehicle (DMSO) for 14 weeks. Locomotor function was evaluated using the activity chamber, rotarod, and hanging-wire tests and ocular structure using optical coherence tomography (OCT).

[7] = system: mitochondrial cytochrome C oxidase (CytoC) and succinate dehydrogenase (SDH) activities; assay: Histological staining of skeletal muscle for mitochondrial enzyme activities; assay type: in vivo; conditions: Sco2 KI/KO mice vs vehicle, FIG. 11D
Text: as §2

Sco2 deficient mice [8] = assay: Hanging wire test in Sco2 mice; assay type: in vivo; conditions: KO/KI mice; vehicle 173.2 sec
Text: as §2

Sco2 deficient mice [9] = assay: Ocular structure by optical coherence tomography (OCT) in Sco2 mice; assay type: in vivo; conditions: for thickness of the retinal nerve fiber layer (RNFL): 10 mg/kg once daily oral gavage
Text: as §2

glycogen content = assay: Histological assessment of glycogen in skeletal muscle; assay type: in vivo; conditions: Sco2 KI/KO mice vs untreated; FIG. 11E
Text: as §2

Sco2 deficient mice [10] = assay: Rotarod running test in Sco2 mice; assay type: in vivo; conditions: KO/KI mice; vehicle 176.1 sec
Text: as §2

Sco2 deficient mice [11] = assay: Activity chamber test in Sco2 mice; assay type: in vivo
Text: as §2

SMILES: Cc1ccc(OCCSc2ncccn2)c(Br)c1 [ZLN024]
- survival / viability (CI-deficient fibroblasts): improved survival

SMILES: OCC1(c2ccc(-c3cc4nc(O[C@@H]5CO[C@H]6[C@@H]5OC[C@H]6O)[nH]c4cc3Cl)cc2)CC1 [PF-739]
- cellular viability, dose dependent manner [1]: increasing levels of cellular viability; also recorded: improved the viability
- cellular morphology [2]: improved cellular morphology; also recorded: improved cell morphology

SMILES: O=C(O)c1c[nH]c2cc(Cl)c(-c3ccc(C4(O)CCC4)cc3)cc12 [PF-06409577]
- cellular viability, dose dependent manner [1]: increasing levels of cellular viability
- cellular viability, dose dependent manner ([1]; listed as PF-04609577): improved the viability
- cellular morphology [2]: improved cellular morphology
- cellular morphology ([2]; listed as PF-04609577): improved cell morphology

SMILES: N#Cc1c(O)c2c(-c3ccc(-c4ccccc4O)cc3)csc2[nH]c1=O [Compound A-769662]
- survival / viability [3]: improved survival
- survival / viability (CI-deficient fibroblasts): improved survival

- EC50 (AMPK): 232 nM
SMILES: O=C(O)c1c[nH]c2cc(Cl)c(-c3ccc(C4(O)CCC4)s3)cc12 [EV8016, 6-chloro-5-(5-(1-hydroxycyclobutyl)thiophen-2-yl)-1H-indole-3-carboxylic acid]
- ACC phosphorylation (AMPK activation) [4]: capable of activating AMPK

SMILES: NC(=O)c1ncn([C@@H]2O[C@H](CO)[C@@H](O)[C@H]2O)c1N [AICAR]
- mean cell survival increased ([1]; SURF1 cells, vs untreated control treated with PBS): 57%
- survival / viability [3]: does not improve cell viability; also recorded: did not improve survival
- survival / viability [5]: does not improve cell viability; also recorded: did not improve survival
- survival / viability (CI-deficient fibroblasts): does not improve cell viability; also recorded: did not improve survival

SMILES: O[C@@H]1CO[C@H]2[C@@H]1OC[C@H]2Oc1nc2nc(-c3ccc(-c4ccccc4)cc3)c(Cl)cc2[nH]1 [MK-8722]
- cellular viability, dose dependent manner [1]: increasing levels of cellular viability; also recorded: improved the viability
- ACC phosphorylation in skeletal muscle [6]: increased phosphorylation of ACC; also recorded: increase in ACC phosphorylation
- intensity of histological stains indicative of CytoC and SDH activities [7]: increased
- hanging wire time (Sco2 deficient mice [8]): 312.5 s
- thickness of the retinal nerve fiber layer (RNFL) (Sco2 deficient mice [9]; KI/WT mice, vehicle 72.7 μm): 74.7 μm
- thickness of the retinal nerve fiber layer (RNFL) (Sco2 deficient mice [9]; Sco2 KI/KO mice, vehicle 74.1 μm): 77 μm
- retinal thickness, degradation (Sco2 deficient mice [9]; treated vs vehicle (VEH) mice, FIG. 9E): less degradation
- glycogen content of skeletal muscle (glycogen content): increased glycogen content
- rotarod running time (Sco2 deficient mice [10]): 248.1 s
- distance moved in the activity chamber (Sco2 deficient mice [11]; KO/KI mice, 8 weeks of treatment, vehicle 1516.7 cm): 2337.8 cm
- activity in activity chamber (Sco2 deficient mice [11]; knock-out/knock-in mice, FIG. 11A): returns to levels comparable with knock-in/wild-type mice
- cellular morphology [2]: improved cellular morphology; also recorded: improved cell morphology
